# Non-standard residues stand in square brackets, D forms with d. Residues, ends and D or L forms follow the SMILES beside them. *: point of attachment. dPhe(4-NHCONH2) = NC(=O)Nc1ccc(C[C@@H](N)C(=O)O)cc1; Dihydroorotyl(S) = O=C1C[C@@H](C(=O)*)NC(=O)N1; dPhe(4-Cl) = N[C@H](Cc1ccc(Cl)cc1)C(=O)O; Phe(4-NH2) = Nc1ccc(C[C@H](N)C(=O)O)cc1; d2Nal = N[C@H](Cc1ccc2ccccc2c1)C(=O)O; Lys(iPr) = CC(C)NCCCC[C@H](N)C(=O)O; d3Pal = N[C@H](Cc1cccnc1)C(=O)O
# What was measured:
# Format in all cases: in vivo, human
# [1] = tested on: patient with systemic lupus erythematosus; assay: Treatment of lupus patient with degarelix
# Source text: The patient has a medical history of a multimorbid patient. Systemic lupus erythematosus (SLE) was diagnosed in 1988 based on Raynauds, skin changes, arthralgia, high titre lupus anticoagulant, ANA, SSA, and SSB. Chilblain type changes in hands and feet (FIGS. 6-8). […] The patient suffered cardiac arrest in 2012, coronary stenosis was observed. The patient had kidney failure since 2012, required dialysis, stabilized creatinine around 150, osteoporosis, COPD, and is a smoker.
# By September 2014, we had no treatment options left. Therefore, we decided to offer […] degarelix. GnRH antagonists have shown anti-inflammatory effects and therefore we considered that degarelix, a depot GnRH antagonist, may have a therapeutic effect in lupus. • Sep. 15, 2014, […] received […] loading dose of degarelix, 240 mg sc. Assessment of Response
# Proteinuria decline is linked to improved lupus nephritis outcomes. Korbet et al studied 61 patients in a controlled trial comparing standard therapy with plasmapheresis for severe lupus nephritis. […] They had constant, increasing proteinuria in 2014.
# [2] = tested on: patients with risk factors for cardiovascular disease; assay: Cardiovascular and metabolic risk factors in patients offered Degarelix
# Source text: In our patient group who were offered Degarelix, some patients had risk factors for cardiovascular disease, metabolic syndrome, lipidemia or hypoalphalipoproteinemia (low HDL). None of these patients had recently started medications prior to the GnRH antagonist that could explain the changes in blood pressure, HbA1C, fasting glucose or lipids. See Example 1 for patient information.
# [3] = tested on: patient with lithium induced psoriasis; assay: Treatment of psoriasis (PASI, serum uric acid, testosterone)
# Description: The PASI score is a standardized score for assessing disease activity in psoriasis.
# He therefore received testosterone supplementation in the form of Testogel containing 50 mg of testosterone, first daily; thereafter every 3 days to maintain testosterone levels within the normal range.
# There are very few trials of lithium induced psoriasis. One trial examined 15 patients with psoriasis who were taking lithium.
smiles,measurement,setting,value
CC(=O)N[C@H](Cc1ccc2ccccc2c1)C(=O)N[C@H](Cc1ccc(Cl)cc1)C(=O)N[C@H](Cc1cccnc1)C(=O)N[C@@H](CO)C(=O)N[C@@H](Cc1ccc(NC(=O)[C@@H]2CC(=O)NC(=O)N2)cc1)C(=O)N[C@H](Cc1ccc(NC(N)=O)cc1)C(=O)N[C@@H](CC(C)C)C(=O)N[C@@H](CCCCNC(C)C)C(=O)N1CCC[C@H]1C(=O)N[C@H](C)C(N)=O [Degarelix] (Ac-[d2Nal][dPhe(4-Cl)][d3Pal]S[Phe(4-NH2)](Dihydroorotyl(S))[dPhe(4-NHCONH2)]L[Lys(iPr)]P[dA]-NH2),ANA (<1),[1]; 07.11.14,26↑
same,FSH (<12),[1]; 07.11.14,<0.1
same,LH (<12),[1]; 07.11.14,<0.3
same,Total urinary protein,[1]; 07.11.14,0.17 g/L
same,ANA (<1),[1]; 14.10.14,28↑
same,FSH (<12),[1]; 14.10.14,<0.1
same,Total urinary protein,[1]; 14.10.14,0.15^2 g/L
same,FSH (<12),[1]; 15.09.14 (day of loading dose),14↑
same,LH (<12),[1]; 15.09.14 (day of loading dose),11
same,Total urinary protein,[1]; 15.09.14 (day of loading dose),0.78↑ g/L
same,ANA (<1),"[1]; 15.09.14 (day of loading dose), out of range",>32↑
same,FSH (<12),[1]; 23.09.14,2
same,LH (<12),[1]; 23.09.14,<0.3
same,Total urinary protein,[1]; 23.09.14,0.75↑ g/L
same,proteinuria,[1]; at 2 months,in remission
same,morning pain,[1]; before treatment,3.5 h
same,proteinuria,[1]; by 1 month,complete remission
same,morning pain,[1]; by 8 weeks,0 h
same,morning pain,[1]; by day 5,1.5 h
same,morning pain,[1]; by day 10,0 h
same,ulcers on hands and feet,[1]; by day 10 of treatment,several ulcers had healed
same,ANA (<1),[1]; column 23.09.14 (25.09.14),31↑
same,fasting glucose,"[2]; Patient 1, October 2014",6.3 mmol/L
same,fasting glucose,"[2]; Patient 1, September 2014",6.6 mmol/L
same,metabolic syndrome criteria,"[2]; Patient 1, after degarelix treatment",no longer fulfills the criteria for metabolic syndrome
same,HBA1c (4.3-6.1%),"[2]; Patient 1, at 8 months",5.7%
same,HBA1c (4.3-6.1%),"[2]; Patient 1, baseline",6.4%
same,blood pressure,"[2]; Patient 1, baseline",151/90
same,HBA1c (4.3-6.1%),"[2]; Patient 1, by 2 weeks",6.1%
same,fasting glucose (4.0-6.0),"[2]; Patient 4, 3 months after starting Degarelix",6.6 mmol/L
same,fasting glucose (4.0-6.0),"[2]; Patient 4, April 2014, before Degarelix",8.9 mmol/L
same,fasting glucose (4.0-6.0),"[2]; Patient 4, December 2013, before Degarelix",8.5 mmol/L
same,HBA1c (4.3-6.1%),"[2]; Patient 4, baseline",6.9%
same,HBA1c (4.3-6.1%),"[2]; Patient 4, by 1 month",6.6%
same,HBA1c (4.3-6.1%),"[2]; Patient 4, by 2 months",6.4%
same,HBA1c (4.3-6.1%),"[2]; Patient 4, by 4 months",6.2%
same,fasting glucose (4.0-6.0),"[2]; Patient 4, by 4 months",6.0 mmol/L
same,HBA1c (4.3-6.1%),"[2]; Patient 4, by 12 months",5.9%
same,HDL (1.0-2.7 mmol/L),"[2]; Patient 7, baseline September 2014",0.68 mmol/L
same,HDL (1.0-2.7 mmol/L),"[2]; Patient 7, by 1 week",0.73 mmol/L
same,HDL (1.0-2.7 mmol/L),"[2]; Patient 7, by 2 weeks",0.75 mmol/L
same,HDL (1.0-2.7 mmol/L),"[2]; Patient 7, by 3 weeks",1.13 mmo/L
same,testosterone levels (normal 8-35 nmol/L),[3]; after the first week,< 1 nmol/L
same,improvement in psoriasis,[3]; at 6 months,stable
same,Psoriasis Area Severity Index (PASI) score,[3]; baseline,53.6
same,serum uric acid (230-480 umol/L),[3]; baseline,485 µmol/L
same,testosterone levels (normal 8-35 nmol/L),[3]; before therapy,12 nmol/L
same,PASI reduction,[3]; by 8 weeks,23%
same,serum uric acid (230-480 umol/L),[3]; by 8 weeks,432 µmol/L
same,testosterone levels (normal 8-35 nmol/L),"[3]; week 8, under testosterone substitution (Testogel)",9 nmol/L
